# Earlier results, collected in US11596597B2, “Depot formulation” (Cipla Limited, priority 2018, dated 2023).
# Conditions: stated in words, no test described
row,Compound,solubility in water
1,c1cnc2cc3c(cc2n1)[C@@H]1CNC[C@H]3C1 [varenicline base],practically insoluble
2,"7,8,9,10-tetrahydro-6,10-methano-6H-pyrazino [2,3-h] [3]-benzazepine, (2R, 3R)-2,3-dihydroxybutanedioate [Varenicline salt]",freely soluble
